Reference: patent publication US20260364080A1, “PYRAZOLO-PYRIMIDINONE COMPOUNDS FOR USE IN METHODS OF INHIBITING WEE1 A KINASE” (Acrivon Therapeutics, Inc., priority 2023, published 2026)

What was measured:
[1] = biological target: T1, Myt1 kinase (CDK1 Thr14 phosphorylation in DAOY medulloblastoma cells) (Homo sapiens, UniProt Q99640); assay: AlphaLISA assay, Myt1 kinase target engagement (phospho-CDK1 Thr14) in DAOY cells; format: cell-based; details: 4 h treatment, read-out: CDK1 Thr14 Phosphorylation EC50
T1 construct: pCDK1 Thr14 AlphaLISA read-out
T1 sequence (Q99640 1-499): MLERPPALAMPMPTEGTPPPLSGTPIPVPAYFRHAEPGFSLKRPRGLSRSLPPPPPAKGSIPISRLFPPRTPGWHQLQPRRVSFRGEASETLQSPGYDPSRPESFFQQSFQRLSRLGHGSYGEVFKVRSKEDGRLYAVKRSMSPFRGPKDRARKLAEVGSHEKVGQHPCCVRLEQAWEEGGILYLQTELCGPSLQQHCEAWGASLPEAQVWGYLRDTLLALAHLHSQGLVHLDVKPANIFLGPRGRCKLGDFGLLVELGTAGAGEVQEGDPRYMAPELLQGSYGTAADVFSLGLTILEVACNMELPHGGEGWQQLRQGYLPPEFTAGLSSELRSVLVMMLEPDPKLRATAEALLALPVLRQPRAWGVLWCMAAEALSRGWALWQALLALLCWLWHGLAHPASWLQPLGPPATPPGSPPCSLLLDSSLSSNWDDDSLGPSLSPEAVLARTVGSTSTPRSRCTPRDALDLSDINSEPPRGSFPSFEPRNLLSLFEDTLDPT
In short: (§1)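 Cells seeded at 10,000 (DAOY) or 20,000 (ACHN) per well, treated 24 h later for 4 h with compound at 7–5000 nM. Lysates analysed by AlphaLISA SureFire Ultra phospho-CDK1 (Thr14) with donor/acceptor beads; EC50 from dose-response curves.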

[2] = test system: DAOY cells; assay: Cell Titer Glo viability assay, DAOY cells; format: cell-based; details: Homo sapiens, 144 h, absolute EC50
Description: (§2) Each of an ACHN renal cell carcinoma cell line (ATCC) and a DAOY medulloblastoma cell line, and an A427 lung cancer line were cultured in Minimum Essential Medium Eagle supplemented with 10% fetal calf serum (Sigma), 1% Penicillin-Streptomycin and 10 mM HEPES buffer (HyClone). Cell cultures were kept in a humidified incubator at 37 °C and 5% CO2. Cells were routinely tested for Mycoplasma contamination.
(§3) ACHN cells, DAOY cells, or A427 cells were seeded at a density of 400, 250, or 500 cells per well respectively, in tissue culture treated 384 well plates (Corning Costar). After overnight incubation, cells were treated with drugs at concentrations ranging from 17 to 10 000 nM. Viability compared to untreated control was assessed at 144 h using Cell Titer Glo assay 2.0 (Promega). […] “NT” means the compounds was not tested in the indicated cells.

[3] = biological target: T2, Myt1 kinase (recombinant PMYT-1) (Homo sapiens, UniProt Q99640); assay: Myt1 kinase binding assay (LanthaScreen Eu Kinase Binding Assay); details: 3 nM tracer 178, 2.5 nM PMYT-1, 1 nM Eu-labeled antibody; read-out: Myt1 kinase Binding IC50
T2 construct: full length PMYT-1 was expressed by baculovirus in insect cells; purchased Invitrogen A30984; host or cells: insect cells (baculovirus)
T2 sequence (Q99640 1-499): T1 sequence (Q99640 1-499)
In short: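 Compound binding to Myt1 kinase was assessed using the LanthaScreen Eu Kinase Binding Assay. This europium-based binding format was applied to quantify how strongly each compound bound to the Myt1 enzyme, and the binding affinity was reported for each compound as an IC50 value.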

[4] = biological target: T3, recombinant human Wee1A kinase (Homo sapiens, UniProt P30291); assay: Wee1A kinase binding assay (LanthaScreen Eu time-resolved FRET); details: 30 nM tracer 178, 5 nM Wee1A kinase, 2 nM Eu-labeled antibody; 60 minutes at room temperature; read-out: Wee1A kinase Binding IC50
T3 construct: full length Wee1 kinase was expressed by baculovirus in insect cells; purchased Invitrogen PV3817; host or cells: insect cells (baculovirus)
T3 sequence (P30291 whole entry): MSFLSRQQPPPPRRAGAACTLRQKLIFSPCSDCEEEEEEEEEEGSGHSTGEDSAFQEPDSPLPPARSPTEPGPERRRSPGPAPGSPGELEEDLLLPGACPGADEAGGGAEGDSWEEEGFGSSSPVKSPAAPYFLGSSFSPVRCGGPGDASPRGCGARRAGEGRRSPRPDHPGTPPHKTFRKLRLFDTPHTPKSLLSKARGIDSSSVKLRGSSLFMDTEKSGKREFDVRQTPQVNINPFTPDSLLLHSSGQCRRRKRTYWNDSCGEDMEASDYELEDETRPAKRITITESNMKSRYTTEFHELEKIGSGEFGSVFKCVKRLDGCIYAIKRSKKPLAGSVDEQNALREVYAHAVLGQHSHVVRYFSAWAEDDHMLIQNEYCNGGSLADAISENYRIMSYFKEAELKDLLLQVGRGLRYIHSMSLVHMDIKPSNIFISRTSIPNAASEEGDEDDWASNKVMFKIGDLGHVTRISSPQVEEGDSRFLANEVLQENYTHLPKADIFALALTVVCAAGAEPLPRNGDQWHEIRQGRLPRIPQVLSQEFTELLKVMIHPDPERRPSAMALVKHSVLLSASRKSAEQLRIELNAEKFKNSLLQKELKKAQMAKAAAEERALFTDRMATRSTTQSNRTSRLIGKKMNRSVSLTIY
In short: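 Full-length, baculovirus-expressed GST-tagged Wee1A (5 nM) was mixed with 2 nM Eu-anti-GST antibody, 30 nM kinase tracer 178 and compound (1% DMSO). Buffer was 50 mM HEPES pH 7.5, 10 mM MgCl2, 1 mM EGTA, 0.01% Brij-35, incubated 60 min at room temperature. TR-FRET 665/615 nm emission ratios from duplicates were curve-fitted.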

[5] = biological target: T4, Wee1A kinase (CDK1 Tyr15 phosphorylation in ACHN renal cell carcinoma cells) (Homo sapiens, UniProt P30291); assay: High-content imaging of pCdk1 Y15, Wee1A kinase target engagement in ACHN cells; format: cell-based; details: 4 h treatment, nuclear positivity for pCdk1 Y15 vs DMSO control, read-out: CDK1 Tyr15 Phosphorylation EC50
T4 construct: pCDK1 Tyr15 immunofluorescence read-out
T4 sequence (P30291 whole entry): as above
In short: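 EC50 values come from the per-well fraction of cells with nuclear pCdk1 Y15 staining, normalised to DMSO control, by automated immunofluorescence imaging. Cells were ACHN renal carcinoma, treated 4 h with compound at 7–5,000 nM or 0.3–200 nM.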

[6] = test system: ACHN cells; assay: Cell Titer Glo viability assay, ACHN cells; format: cell-based; details: Homo sapiens, 144 h, absolute EC50
In short: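 Cells grown in MEM with 10% FCS were seeded at 500 (A427), 400 (ACHN) or 250 (DAOY) per well and treated the next day with compound at 17 to 10 000 nM. Viability relative to untreated control was read at 144 h by CellTiter-Glo 2.0.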

[7] = test system: A427 cells; assay: Cell Titer Glo viability assay, A427 cells; format: cell-based; details: Homo sapiens, A-427, 144 h, absolute EC50
Description: as §2, §3

[8] = biological target: T5, Myt1 kinase (CDK1 Thr14 phosphorylation in ACHN renal cell carcinoma cells) (Homo sapiens, UniProt Q99640); assay: AlphaLISA assay, Myt1 kinase target engagement (phospho-CDK1 Thr14) in ACHN cells; format: cell-based; details: ACHN cells (marked *); 4 h treatment
T5 construct: pCDK1 Thr14 AlphaLISA read-out
T5 sequence (Q99640 1-499): T1 sequence (Q99640 1-499)
In short: as §1

Row | EC50 [1] | IC50 [3] | IC50 [4] | EC50 [5] | EC50 [6] | EC50 [8] | SMILES | EC50 [2] | EC50 [7]
1 | < 200 nM | < 20 nM | < 10 nM | < 100 nM | ≤ 100 nM | – | C=CCn1c(=O)c2cnc(Nc3ccc4c(cnn4C)c3)nc2n1-c1cccc(OC2CCN(C)CC2)n1 [Compound 109, 2-allyl-6-(1-methyl-1H-indazol-5-ylamino)-1-[6-(1-methyl-4-piperidyloxy)-2-pyridyl]-1,2-dihydro-3H-1,2,5,7-tetraazainden-3-one] | ≤ 100 nM | ≤ 100 nM
2 | 200 to 500 nM | 20 to 100 nM | < 10 nM | < 100 nM | ≤ 100 nM | – | C=CCn1c(=O)c2cnc(Nc3cccc(C)c3)nc2n1-c1cccc(OC2CCNCC2)n1 [Compound 296, 2-allyl-1-(6-(piperidin-4-yloxy)pyridin-2-yl)-6-(m-tolylamino)-1,2-dihydro-3H-pyrazolo[3,4-d]pyrimidin-3-one] | ≤ 100 nM | ≤ 100 nM
3 | < 200 nM | 20 to 100 nM | < 10 nM | < 100 nM | ≤ 100 nM | – | C=CCn1c(=O)c2cnc(Nc3ccc(OCCF)cc3)nc2n1-c1cccc(OC2CCN(C)CC2)n1 [Compound 234, 2-allyl-6-((4-(2-fluoroethoxy)phenyl)amino)-1-(6-((1-methylpiperidin-4-yl)oxy)pyridin-2-yl)-1,2-dihydro-3H-pyrazolo[3,4-d]pyrimidin-3-one] | ≤ 100 nM | ≤ 100 nM
4 | – | 20 to 100 nM | < 10 nM | < 100 nM | ≤ 100 nM | 200 to 500 nM | C=CCn1c(=O)c2cnc(Nc3ccc4c(ccn4C)c3)nc2n1-c1cccc(OC2CCN(C)CC2)n1 [Compound 186, 2-allyl-6-((1-methyl-1H-indol-5-yl)amino)-1-(6-((1-methylpiperidin-4-yl)oxy)pyridin-2-yl)-1,2-dihydro-3H-pyrazolo[3,4-d]pyrimidin-3-one] | ≤ 100 nM | –
5 | – | 20 to 100 nM | < 10 nM | < 100 nM | ≤ 100 nM | – | C=CCn1c(=O)c2cnc(Nc3cnn(C)c3)nc2n1-c1cccc(OC2CCN(C)CC2)n1 [Compound 137, 2-allyl-1-[6-(1-methyl-4-piperidyloxy)-2-pyridyl]-6-(1-methyl-4-pyrazolylamino)-1,2-dihydro-3H-1,2,5,7-tetraazainden-3-one] | – | ≤ 100 nM
6 | – | 100 to 500 nM | < 10 nM | < 100 nM | ≤ 100 nM | – | C=CCn1c(=O)c2cnc(Nc3cc(C)cc(F)c3)nc2n1-c1cccc(NC2CCN(C)CC2)n1 [Compound 161, 2-allyl-6-(3-fluoro-5-toluidino)-1-[6-(1-methyl-4-piperidylamino)-2-pyridyl]-1,2-dihydro-3H-1,2,5,7-tetraazainden-3-one] | – | 100 to 500 nM
7 | 200 to 500 nM | 20 to 100 nM | < 10 nM | < 100 nM | ≤ 100 nM | – | C=CCn1c(=O)c2cnc(Nc3ccc(OCCF)cc3)nc2n1-c1cccc(OC2CCNCC2)n1 [Compound 233, 2-allyl-6-((4-(2-fluoroethoxy)phenyl)amino)-1-(6-(piperidin-4-yloxy)pyridin-2-yl)-1,2-dihydro-3H-pyrazolo[3,4-d]pyrimidin-3-one] | ≤ 100 nM | ≤ 100 nM
8 | 200 to 500 nM | < 20 nM | < 10 nM | < 100 nM | ≤ 100 nM | – | C=CCn1c(=O)c2cnc(Nc3ccc(Cl)cc3)nc2n1-c1cccc(OC2CCN(C)CC2)n1 [Compound 142, 2-allyl-6-((4-chlorophenyl)amino)-1-(6-((1-methylpiperidin-4-yl)oxy)pyridin-2-yl)-1,2-dihydro-3H-pyrazolo[3,4-d]pyrimidin-3-one] | 100 to 500 nM | 100 to 500 nM
